In patent US5763408A, “Amino acid derivatives and application thereof” (Fuji Photo Film Co., Ltd., priority 1992, dated 1998):
pIC50: −log10 of the molar value.

Assays:
B16-BL6 melanoma cells = test: Experimental metastasis test of B16-BL6 melanoma cells in lung; type: in vivo, C57BL/6 female mice; conditions: day 14
Method: Tumor metastasis inhibition activities of the compounds of the present invention were examined.
A test compound and B16-BL6 melanoma cells, which have strong metastatic property, were mixed in PBS. 0.2 ml of the mixture was intravenously injected to each of C57BL/6 female mice, of which groups each consisted of 5 mice. The mixture injected (0.2 ml) contained 5×10^4 B16-BL6 cells. On the 14th day from the administration, number of melanoma cell colonies was determined and compared with that of control mice, which were administered with PBS.

[1] = tested on: PRP (polyplatelet rich plasma); test: Platelet aggregation inhibition activity (ADP-induced aggregation in PRP); type: cell-based; conditions: for Platelet aggregation inhibition rate (%): test compound 1 mg/ml in PRP, ADP as inducer, five minutes later
Method: Platelet aggregation inhibition activities of Compounds 1, 2, 3, 4, 5, 6, 7 and 15 were examined.
A test compound was added to PRP (polyplatelet rich plasma, 3×10^8 cells/ml) so that the plasma contained the compound at a concentration of 1 mg/ml and the plasma was added with 10 μl of ADP as an aggregation inducing substance. Five minutes later, aggregation ratio was determined by a chronologic whole blood aggregation ability measuring apparatus to calculate platelet aggregation inhibition ratio.

colon 26/M3.1 cells = test: Experimental metastasis test of colon 26/M3.1 cells in lung; type: in vivo, C57BL/6 female mice; conditions: Table 13, 1000 μg/mouse, day 14, PBS control 148 ± 12
Method: A test compound and colon 26/M3.1 cells, which have strong metastatic property, were mixed in PBS. 0.2 ml of the mixture was intravenously injected to each of C57BL/6 female mice, of which groups each consisted of 5 mice. The mixture injected (0.2 ml) contained 4×10^4 colon 26/M3.1 cells. On the 14th day from the administration, number of colonies in lung was determined and compared with that of control mice, which were administered with PBS.
A segment peptide of fibronectin, Gly-Arg-Gly-Asp-Ser (GRGDS), of which tumour metastasis inhibition activities have been known, was used as a comparative sample.

[2] = tested on: L5178Y-ML25 T-lymphoma cells; test: Experimental metastasis of L5178Y-ML25 T-lymphoma cells (weights of livers and spleens); type: in vivo, CDF1 mice; conditions: day 14, in g (unit assumed); for Weight of spleen (Mean ± SD): PBS 0.23 ± 0.03, no lymphoma cell 0.12 ± 0.02; for Weight of liver (Mean ± SD): PBS 4.18 ± 0.30, no lymphoma cell 1.36 ± 0.02
Method: A test compound and L5178Y-ML25 T-lymphoma cells were mixed in PBS. 0.2 ml of the mixture was intravenously injected to each of CDF1 mice, of which groups each consisted of 5 mice. The mixture injected (0.2 ml) contained 4×10^4 L5178Y-ML25 T-lymphoma cells. On the 14th day from the administration, weights of livers and spleens of mice were determined and compared with those of control mice, which were administered with PBS.

[3] = Table 11, 500 μg/mouse, PBS control 114 ± 28
[4] = Table 4, 500 μg/mouse, PBS control 96 ± 14
[5] = Table 6, 500 μg/mouse, PBS control 103 ± 30
[6] = Table 7, 500 μg/mouse, PBS control 101 ± 28
[7] = Table 5, 1000 μg/mouse, PBS control 118 ± 15

| Structure (SMILES) | Number of colonies (Mean ± SD) (B16-BL6 melanoma cells; [3]) | Number of colonies (Mean ± SD) (B16-BL6 melanoma cells; [4]) | Number of colonies (Mean ± SD) (B16-BL6 melanoma cells; [5]) | Number of colonies (Mean ± SD) (B16-BL6 melanoma cells; [6]) | Platelet aggregation inhibition rate (%) [1] | Number of colonies (Mean ± SD) (B16-BL6 melanoma cells; [7]) | other results |
| --- | --- | --- | --- | --- | --- | --- | --- |
| N=C(N)NCCCC(NC(=O)CNC(CC(=O)O)C(=O)O)C(=O)O (stereo not shown) [Compound 35] | 52 ± 14 | – | – | – | – | – | – |
| N=C(N)NCCCC(NCC(=O)NC(CC(=O)O)C(=O)O)C(=O)O (stereo not shown) [Compound 34] | 51 ± 19 | – | – | – | – | – | – |
| N=C(N)NCCCC(NC(=O)C(=O)NC(CC(=O)O)C(=O)O)C(=O)O (stereo not shown) [Compound 33] | 51 ± 18 | – | – | – | – | – | – |
| N=C(N)NCCC[C@@H](NC(=O)CC(=O)N[C@@H](CC(=O)O)C(=O)O)C(=O)O [Compound 2] | – | 23 ± 9 | 72 ± 15 | 38 ± 16 | 53% | – | Number of colonies (Mean ± SD) (B16-BL6 melanoma cells; Table 3, 500 μg/mouse, PBS control 81 ± 23): 39 ± 13; Number of colonies (Mean ± SD) (B16-BL6 melanoma cells; Table 3, 1000 μg/mouse, PBS control 81 ± 23): 3 ± 2 |
| CNC(=O)C(CCCNC(=N)N)NC(=O)CC(=O)NC(CC(=O)O)C(=O)NC (stereo not shown) [Compound 14] | – | 94 ± 26 | – | – | – | 69 ± 7 | – |
| N=C(N)NCCCC(NC(=O)CC(=O)NC(CC(=O)O)C(=O)O)C(=O)NCC(=O)O (stereo not shown) [Compound 19] | – | – | – | – | – | – | Number of colonies (Mean ± SD) (B16-BL6 melanoma cells; Table 8, 1000 μg/mouse, PBS control 168 ± 28): 32 ± 8; Number of colonies (Mean ± SD) (B16-BL6 melanoma cells; Table 9, 1000 μg/mouse, PBS control 168 ± 28): 32 ± 8 |
| N=C(N)NCCC[C@H](NC(=O)CC(=O)N[C@@H](CC(=O)O)C(=O)O)C(=O)O [Compound 1] | – | 13 ± 6 | 63 ± 23 | 19 ± 11 | 57% | 25 ± 8 | Number of colonies (Mean ± SD) (B16-BL6 melanoma cells; Table 2, 1000 μg/mouse i.v. mixed with cells, PBS control 141 ± 16): 46 ± 10; Number of colonies (Mean ± SD) (colon 26/M3.1 cells): 31 ± 26; pIC50 ([1]; platelet aggregation, PRP, ADP): 2.62; Weight of spleen (Mean ± SD) ([2]; 100 μg/mouse): 0.18 ± 0.02; Weight of liver (Mean ± SD) ([2]; 100 μg/mouse): 3.09 ± 0.78; Weight of spleen (Mean ± SD) ([2]; 500 μg/mouse): 0.20 ± 0.02; Weight of liver (Mean ± SD) ([2]; 500 μg/mouse): 2.98 ± 0.29; Weight of spleen (Mean ± SD) ([2]; 1000 μg/mouse): 0.14 ± 0.01; Weight of liver (Mean ± SD) ([2]; 1000 μg/mouse): 1.84 ± 0.36 |
| N=C(N)NCCC[C@H](NC(=O)CC(=O)N[C@@H](CC(=O)O)C(=O)N[C@@H](CO)C(=O)O)C(=O)O [Compound 15] | – | – | 39 ± 17 | 32 ± 8 | 47% | – | – |
| CNC(=O)C(CCCNC(=N)N)NC(=O)CC(=O)NC(CC(=O)O)C(=O)O (stereo not shown) [Compound 12] | – | 58 ± 20 | – | – | – | 19 ± 6 | – |
| CNC(=O)C(CC(=O)O)NC(=O)CC(=O)NC(CCCNC(=N)N)C(=O)O (stereo not shown) [Compound 8] | – | 55 ± 12 | – | – | – | 24 ± 9 | – |
